In brackets after ≈: the same amount, converted by molar mass.
Assays:
IL-6 = assay: Human immune cell line THP-1 in vitro assay, IL-6 measured by ELISA in supernatant; type: cell-based
Protocol: (§1) In this assay, the concentration of IL-6 (Interleukin-6) and the % cell viability are measured. Widening of therapeutic window is indicated by the concentration of Interleukin-6 (IL-6) as measured on the Human Immune cell Line using the THP-1 invitro assay in pg/ml and the % cell viability of THP-1 cells.
(§2) Cells were differentiated in 24-well plates at the density of 5 x 10^5 cells / well with 100 nM PMA for 72 hours. Cells were then co-treated with E.coli lipopolysaccharides (LPS) and single concentration or a combination of piperlongumine and L-cystine at different doses. After 24 hours, the supernatants were collected for measurement of interleukin (IL)-6 as a pro-inflammatory biomarker using enzyme-linked immunosorbent assay (ELISA).

[1] = 25°C; cited from earlier work
in vitro = conditions: human, oral keratinocytes
Protocol: (§3) HOKs (Passage 4-6) were seeded in 96 well-plates at the density of 2 x 10^4 cells / well overnight. On the experimental day the cells were treated with heat killed P.gingivalis and single concentration or a combination of piperlongumine and L-cystine at different doses. After 24 hours, cell viability was measured with cell counting kit-8.

[2] = Human immune cell line THP-1 in vitro assay, cell viability; conditions: thp-1 cells, Cell viability (%)
Protocol: as §1, §2

[3] = system: Human oral keratinocytes (HOK); assay: Human oral keratinocytes (HOK) in vitro assay, cell viability by cell counting kit-8; conditions: Table 3; Piperlongumine 15 µM, HOKs treated with heat killed P.gingivalis, 24 hours; Control 100; 1440 min, 15 µM
Protocol: as §3

[4] = as above; conditions: human, oral keratinocytes, Cell viability (%), Table 3, Piperlongumine 15 µM, HOKs treated with heat killed P.gingivalis, Control 100
Protocol: as §3

THP-1 cells = conditions: human, 24 h, 100 µM
Protocol: as §1, §2

In the case of `N[C@@H](CSSC[C@H](N)C(=O)O)C(=O)O` [L-cystine], the “Concentration of IL-6” value (IL-6; Table 1, L-cystine 100 µM, co-treated with E.coli LPS, 24 hours, Control 98, LPS alone 2252) is given as 1896 pg/mL, the Solubility in water [1] is given as 112 µg/mL (≈ 466 µM) and the viability at 24 h, 50 µM (in vitro) is given as 102%. For the same molecule, the viability at 24 h, 100 µM (in vitro) was 109%.
Work on `COc1cc(/C=C/C(=O)N2CCC=CC2=O)cc(OC)c1OC` [Piperlongumine, 5,6-dihydro-1-[(2E)-1-oxo-3-(3,4,5-trimethoxyphenyl)-2-propenyl]-2(1 H)-pyridinone] yielded a viability at 24 h, 5 µM ([2]; Table 1, Piperlongumine 5 µM, co-treated with E.coli LPS, 24 hours, Control 100, LPS alone 91) of 100%, a viability at 24 h, 10 µM ([2]; Table 1, Piperlongumine 10 µM, co-treated with E.coli LPS, 24 hours, Control 100, LPS alone 91) of 74% and a viability at 24 h, 10 µM ([2]; Table 2, Piperlongumine 10 µM, Control 100, LPS alone 86) of 39%. For the same molecule, the “Concentration of IL-6” value (IL-6; Table 1, Piperlongumine 5 µM, co-treated with E.coli LPS, 24 hours, Control 98, LPS alone 2252) was 103 pg/mL, the “Concentration of IL-6” value (IL-6; Table 1, Piperlongumine 10 µM, co-treated with E.coli LPS, 24 hours, Control 98, LPS alone 2252) was 117 pg/mL and the “Concentration of IL-6” value (IL-6; Table 2, Piperlongumine 10 µM, Control 122, LPS alone 3953) was 91 pg/mL. For the same molecule, the “Cell viability (%)” value [3] was 63.38% and the viability at 24 h, 15 µM [4] was 63.4%.
For Vitamin E [reference compound], the “Concentration of IL-6” value (IL-6; Table 2, Vitamin E 100 µM, Control 122, LPS alone 3953) was 2998 pg/mL and the “Cell viability (%)” value (THP-1 cells) was 73%.

Source: patent publication EP3785697A1, “COSMETIC COMPOSITIONS COMPRISING PIPERLONGUMINE” (Unilever N.V., priority 2019, dated 2021)
